From patent US7078556B2, “Antibiotics Cyan-416 A, Cyan-416 B, Cyan-416 C, Cyan-416 D and Cyan-416 E, and ester derivatives of Cyan-416 B” (Wyeth Holdings Corporation, priority 2002, dated 2006)
≈ marks a conversion by molar mass, not a printed value. Like-named read-outs stand apart in the source and are kept apart here.

Experiments:
Assay in all cases: MIC by broth dilution
Assay type in all cases: cell-based
[1] = system: Enterococcus faecalis GC 842; details: GC842, Table 1, 18 hours at 35° C.
Description: (§1) The minimum inhibitory concentration (MIC), the lowest concentration of the antibiotic which inhibits growth of the test organism, is determined by the broth dilution method using Muller-Hinton II […] (Baltimore Biological Laboratories) following the recommendations of the National Committee for Clinical Laboratory Standards [Methods for dilution antimicrobial susceptibility tests for bacteria that grow aerobically. Approved standard M7-A2. National Committee for Clinical Laboratory Standards, Villanova, Pa].
(§2) An inoculum level of 5×10^5 CFU/ml, and a range of antibiotic concentrations (64–0.06 μg/ml) is used. The MIC is determined after the microtiter plates are incubated for 18 hours at 35° C. in an ambient air incubator. The test organisms comprise a spectrum of the Gram-positive bacteria Staphylococcus aureus, Streptococcus pneumoniae, and Enterococcus sp., the Gram-negative bacteria Escherichia coli, and the yeast Candida albicans. These organisms include recent clinical isolates that are resistant to methicillin and vancomycin. MIC data of Cyan-416 A–E are listed in Table 1 and MIC data of ester derivatives of Cyan-416 B (Formula I) are listed in Table 2.

Candida albicans GC 3066 = details: GC3066, 18 h
Description: as §1, §2

[2] = system: Staphylococcus aureus GC 4536; details: GC4536, Table 1, 18 hours at 35° C.
Description: as §1, §2

[3] = system: Staphylococcus aureus GC 1131
Description: as §1, §2

Escherichia coli GC 2203 = details: GC2203, 18 h
Description: as §1, §2

[4] = system: Enterococcus faecalis GC 2242
Description: as §1, §2

[5] = system: Enterococcus faecalis GC 4555
Description: as §1, §2

[6] = system: Staphylococcus aureus GC 2216
Description: as §1, §2

[7] = system: Escherichia coli GC 4560 (imp)
Description: as §1, §2

[8] = system: Pseudomonas aeruginosa GC 2214; details: GC2214, Table 1, 18 hours at 35° C.
[9] = system: Staphylococcus aureus GC 4543; details: GC4543, Table 2, 18 hours at 35° C.
Description: as §1, §2

[10] = system: Streptococcus pneumoniae GC 6242; details: GC6242, Table 2, 18 hours at 35° C.
Description: as §1, §2

[11] = system: Enterococcus faecium 4558; details: Table 2, 18 hours at 35° C.
Description: as §1, §2

[12] = system: Staphylococcus aureus GC 4541; details: GC4541, Table 2, 18 hours at 35° C.
Description: as §1, §2

[13] = system: Staphylococcus haemolyticus GC 4547; details: GC4547, Table 2, 18 hours at 35° C.
Description: as §1, §2

[14] = system: Enterococcus faecium GC 2243; details: GC2243, Table 2, 18 hours at 35° C.
Description: as §1, §2

[15] = system: Streptococcus pneumoniae GC 1894; details: GC1894, Table 2, 18 hours at 35° C.
Description: as §1, §2

[16] = system: Enterococcus faecium GC 4556; details: GC4556, Table 2, 18 hours at 35° C.
Description: as §1, §2

[17] = system: Enterococcus faecalis GC 6189; details: GC6189, Table 2, 18 hours at 35° C.
Description: as §1, §2

[18] = GC1131, Table 1, 18 hours at 35° C., read-out: MIC
[19] = Table 1, Escherichia coli GC 2203, 18 hours at 35° C.
[20] = GC2242, Table 1, 18 hours at 35° C., read-out: MIC
[21] = GC4555, Table 1, 18 hours at 35° C., read-out: MIC
[22] = GC2216, Table 1, 18 hours at 35° C., read-out: MIC
[23] = GC1131, Table 2, 18 hours at 35° C., read-out: MIC
[24] = Table 2, Escherichia coli coli GC 2203, 18 hours at 35° C.
[25] = GC2242, Table 2, 18 hours at 35° C., read-out: MIC
[26] = GC4555, Table 2, 18 hours at 35° C., read-out: MIC
[27] = GC2216, Table 2, 18 hours at 35° C., read-out: MIC

| Structure (SMILES) | MIC [1] | MIC (Candida albicans GC 3066; Table 1, 18 hours at 35° C.) | MIC [2] | MIC [3, 18] | MIC (Escherichia coli GC 2203; [19]) | MIC [4, 20] | MIC [5, 21] | MIC [6, 22] | MIC ([7]; Escherichia coli, 18 h) | MIC [8] | MIC [9] | MIC (Candida albicans GC 3066; Table 2, 18 hours at 35° C.) | MIC [10] | MIC [11] | MIC [12] | MIC [13] | MIC [14] | MIC (Escherichia coli GC 2203; [24]) | MIC [15] | MIC [16] | further results |
| --- | --- | --- | --- | --- | --- | --- | --- | --- | --- | --- | --- | --- | --- | --- | --- | --- | --- | --- | --- | --- | --- |
| COC(=O)c1c(O)ccc(O)c1C(=O)c1c(O)cc(C)cc1O [Example 4a, Cyan-416 D] | 64 µg/mL (≈ 201 µM) | > 64 µg/mL | 64 µg/mL (≈ 201 µM) | 64 µg/mL (≈ 201 µM) | > 64 µg/mL | 32 µg/mL (≈ 101 µM) | 64 µg/mL (≈ 201 µM) | 64 µg/mL (≈ 201 µM) | 64 µg/mL (≈ 201 µM) | > 64 µg/mL | – | – | – | – | – | – | – | – | – | – | – |
| CCCCCC(=O)O[C@H]1c2cc(C)cc(O)c2C(O)=C2C(=O)[C@H]3C=C[C@]21Cc1cc(O)c(C(=O)c2c(O)ccc(O)c2C(=O)OC)c(O)c13 [Example 9, Cyan-416 B hexanoate] | – | – | – | – | – | – | – | – | 8 µg/mL (≈ 11.9 µM) | – | 4 µg/mL (≈ 5.96 µM) | > 128 µg/mL | 8 µg/mL (≈ 11.9 µM) | 2 µg/mL (≈ 2.98 µM) | 4 µg/mL (≈ 5.96 µM) | 4 µg/mL (≈ 5.96 µM) | 4 µg/mL (≈ 5.96 µM) | > 128 µg/mL | 8 µg/mL (≈ 11.9 µM) | 4 µg/mL (≈ 5.96 µM) | MIC [3, 23]: 4 µg/mL (≈ 5.96 µM); MIC [4, 25]: 4 µg/mL (≈ 5.96 µM); MIC [5, 26]: 4 µg/mL (≈ 5.96 µM); MIC [6, 27]: 4 µg/mL (≈ 5.96 µM); MIC [17]: 4 µg/mL (≈ 5.96 µM) |
| CCCC(=O)O[C@H]1c2cc(C)cc(O)c2C(O)=C2C(=O)[C@H]3C=C[C@]21Cc1cc(O)c(C(=O)c2c(O)ccc(O)c2C(=O)OC)c(O)c13 [Example 6, Cyan-416 B butyrate] | – | – | – | – | – | – | – | – | 16 µg/mL (≈ 24.9 µM) | – | 8 µg/mL (≈ 12.4 µM) | > 128 µg/mL | 32 µg/mL (≈ 49.8 µM) | 8 µg/mL (≈ 12.4 µM) | 8 µg/mL (≈ 12.4 µM) | 16 µg/mL (≈ 24.9 µM) | 16 µg/mL (≈ 24.9 µM) | > 128 µg/mL | 16 µg/mL (≈ 24.9 µM) | 8 µg/mL (≈ 12.4 µM) | MIC [3, 23]: 8 µg/mL (≈ 12.4 µM); MIC [4, 25]: 8 µg/mL (≈ 12.4 µM); MIC [5, 26]: 16 µg/mL (≈ 24.9 µM); MIC [6, 27]: 8 µg/mL (≈ 12.4 µM); MIC [17]: 16 µg/mL (≈ 24.9 µM) |
| COC(=O)c1c(O)ccc(O)c1C(=O)c1c(O)cc2c(c1O)[C@@H]1C=C[C@]3(C2)C(=C(O)c2c(O)cc(C)cc2[C@@H]3OC(C)=O)C1=O [Example 3a, Cyan-416 A] | 16 µg/mL (≈ 26 µM) | > 64 µg/mL | 8 µg/mL (≈ 13 µM) | 8 µg/mL (≈ 13 µM) | > 64 µg/mL | 16 µg/mL (≈ 26 µM) | 16 µg/mL (≈ 26 µM) | 8 µg/mL (≈ 13 µM) | 32 µg/mL (≈ 52.1 µM) | > 64 µg/mL | 8 µg/mL (≈ 13 µM) | > 128 µg/mL | 8 µg/mL (≈ 13 µM) | 8 µg/mL (≈ 13 µM) | 16 µg/mL (≈ 26 µM) | 16 µg/mL (≈ 26 µM) | 8 µg/mL (≈ 13 µM) | > 128 µg/mL | 8 µg/mL (≈ 13 µM) | 16 µg/mL (≈ 26 µM) | MIC ([3]; Table 2, 18 hours at 35° C.): 8 µg/mL (≈ 13 µM); MIC ([4]; Table 2, 18 hours at 35° C.): 16 µg/mL (≈ 26 µM); MIC ([5]; Table 2, 18 hours at 35° C.): 16 µg/mL (≈ 26 µM); MIC ([6]; Table 2, 18 hours at 35° C.): 8 µg/mL (≈ 13 µM); MIC ([7]; Table 2, Escherichia coli GC 4560 (imp), 18 hours at 35° C.): 32 µg/mL (≈ 52.1 µM); MIC [17]: 16 µg/mL (≈ 26 µM) |
| COC(=O)c1c(O)ccc(O)c1C(=O)c1c(O)cc(C)c(Cc2c(C)cc(O)c(C(=O)c3c(O)ccc(O)c3C(=O)OC)c2O)c1O [Example 4b, Cyan-416 E] | 64 µg/mL (≈ 98.7 µM) | 64 µg/mL (≈ 98.7 µM) | 64 µg/mL (≈ 98.7 µM) | 64 µg/mL (≈ 98.7 µM) | > 64 µg/mL | 64 µg/mL (≈ 98.7 µM) | 64 µg/mL (≈ 98.7 µM) | 64 µg/mL (≈ 98.7 µM) | 64 µg/mL (≈ 98.7 µM) | 64 µg/mL (≈ 98.7 µM) | – | – | – | – | – | – | – | – | – | – | – |
| COC(=O)c1c(O)ccc(O)c1C(=O)c1c(O)cc2c(c1O)[C@@H]1C=C[C@@]3(C2)[C@@H](OC(C)=O)c2cc(C)cc(O)c2C(=O)C3(O)C1=O (stereo partly shown) [Example 3c, Cyan-416 C] | 32 µg/mL (≈ 50.7 µM) | > 64 µg/mL | 32 µg/mL (≈ 50.7 µM) | 32 µg/mL (≈ 50.7 µM) | > 64 µg/mL | 32 µg/mL (≈ 50.7 µM) | 64 µg/mL (≈ 101 µM) | 32 µg/mL (≈ 50.7 µM) | > 64 µg/mL | > 64 µg/mL | – | – | – | – | – | – | – | – | – | – | – |
| CCCCC(=O)O[C@H]1c2cc(C)cc(O)c2C(O)=C2C(=O)[C@H]3C=C[C@]21Cc1cc(O)c(C(=O)c2c(O)ccc(O)c2C(=O)OC)c(O)c13 [Example 8, Cyan-416 B pentanoate] | – | – | – | – | – | – | – | – | 8 µg/mL (≈ 12.2 µM) | – | 4 µg/mL (≈ 6.09 µM) | > 128 µg/mL | 8 µg/mL (≈ 12.2 µM) | 2 µg/mL (≈ 3.05 µM) | 4 µg/mL (≈ 6.09 µM) | 4 µg/mL (≈ 6.09 µM) | 4 µg/mL (≈ 6.09 µM) | > 128 µg/mL | 8 µg/mL (≈ 12.2 µM) | 4 µg/mL (≈ 6.09 µM) | MIC [3, 23]: 4 µg/mL (≈ 6.09 µM); MIC [4, 25]: 4 µg/mL (≈ 6.09 µM); MIC [5, 26]: 4 µg/mL (≈ 6.09 µM); MIC [6, 27]: 4 µg/mL (≈ 6.09 µM); MIC [17]: 4 µg/mL (≈ 6.09 µM) |
| COC(=O)c1c(O)ccc(O)c1C(=O)c1c(O)cc2c(c1O)[C@@H]1C=C[C@]3(C2)C(=C(O)c2c(O)cc(C)cc2[C@@H]3OC(=O)C(C)C)C1=O [Example 7, Cyan-416 B isobutyrate] | – | – | – | – | – | – | – | – | 8 µg/mL (≈ 12.4 µM) | – | 4 µg/mL (≈ 6.22 µM) | > 128 µg/mL | 16 µg/mL (≈ 24.9 µM) | 2 µg/mL (≈ 3.11 µM) | 2 µg/mL (≈ 3.11 µM) | 4 µg/mL (≈ 6.22 µM) | 8 µg/mL (≈ 12.4 µM) | > 128 µg/mL | 8 µg/mL (≈ 12.4 µM) | 4 µg/mL (≈ 6.22 µM) | MIC [3, 23]: 4 µg/mL (≈ 6.22 µM); MIC [4, 25]: 4 µg/mL (≈ 6.22 µM); MIC [5, 26]: 4 µg/mL (≈ 6.22 µM); MIC [6, 27]: 4 µg/mL (≈ 6.22 µM); MIC [17]: 4 µg/mL (≈ 6.22 µM) |
| COC(=O)c1c(O)ccc(O)c1C(=O)c1c(O)cc2c(c1O)[C@@H]1C=C[C@]3(C2)C(=C(O)c2c(O)cc(C)cc2[C@@H]3O)C1=O [Example 3b, Cyan-416 B] | 64 µg/mL (≈ 112 µM) | > 64 µg/mL | 32 µg/mL (≈ 55.9 µM) | 32 µg/mL (≈ 55.9 µM) | > 64 µg/mL | 32 µg/mL (≈ 55.9 µM) | 64 µg/mL (≈ 112 µM) | 32 µg/mL (≈ 55.9 µM) | 64 µg/mL (≈ 112 µM) | > 64 µg/mL | – | – | – | – | – | – | – | – | – | – | – |
